Experimental findings from PubChem BioAssay AID2060620 (Molecular Pharmacology Branch, DTP, NCI, 2025) are described below.

The test system of the assay is 328373-195-R-J1-PDC complex spheroids, viability % test/control. As to the kind of experiment: Anticancer human tumor 328373-195-R-J1-PDC patient-derived head and neck squamous carcinoma cell line growth inhibition [CLK]. Conditions: for viability, T/C: stronger effect = lower value. The procedure, abridged: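 Patient-derived tumor cells grown as complex spheroids with HUVEC endothelial cells and mesenchymal stem cells, treated with drug combinations. Concentrations descend in half-log steps from near clinical Cmax, or from 10 microM if Cmax unknown.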

[1] abbreviates: curve of first compound, second compound 0.0316 µM.
[2] abbreviates: curve of first compound, second compound 0.1 µM.
The mark [3] stands for this setting: curve of first compound, second compound 0.316 µM.
Where [4] appears, read: curve of first compound, second compound 1 µM.
[5] abbreviates: curve of first compound, second compound 3.16 µM.
Where [6] appears, read: curve of first compound, second compound 10 µM.
The mark [7] stands for this setting: second compound 0.0316 µM, first compound 0.0316 µM.
Where [8] appears, read: second compound 0.0316 µM, first compound 0.1 µM.
Where [9] appears, read: second compound 0.0316 µM, first compound 0.316 µM.
Where [10] appears, read: second compound 0.0316 µM, first compound 1 µM.
[11] abbreviates: second compound 0.0316 µM, first compound 3.16 µM.
The mark [12] stands for this setting: second compound 0.0316 µM, first compound 10 µM.
Where [13] appears, read: second compound 0.1 µM, first compound 0.0316 µM.
Setting [14] is: second compound 0.1 µM, first compound 0.1 µM.
Where [15] appears, read: second compound 0.1 µM, first compound 0.316 µM.
Setting [16] is: second compound 0.1 µM, first compound 1 µM.
Setting [17] is: second compound 0.1 µM, first compound 3.16 µM.
Where [18] appears, read: second compound 0.1 µM, first compound 10 µM.
The mark [19] stands for this setting: second compound 0.316 µM, first compound 0.0316 µM.
Setting [20] is: second compound 0.316 µM, first compound 0.1 µM.
Where [21] appears, read: second compound 0.316 µM, first compound 0.316 µM.
[22] abbreviates: second compound 0.316 µM, first compound 1 µM.
The mark [23] stands for this setting: second compound 0.316 µM, first compound 3.16 µM.
Setting [24] is: second compound 0.316 µM, first compound 10 µM.
Where [25] appears, read: second compound 1 µM, first compound 0.0316 µM.
[26] abbreviates: second compound 1 µM, first compound 0.1 µM.
The mark [27] stands for this setting: second compound 1 µM, first compound 0.316 µM.
The mark [28] stands for this setting: second compound 1 µM, first compound 1 µM.
Setting [29] is: second compound 1 µM, first compound 3.16 µM.
Setting [30] is: second compound 1 µM, first compound 10 µM.
Where [31] appears, read: second compound 3.16 µM, first compound 0.0316 µM.
[32] abbreviates: second compound 3.16 µM, first compound 0.1 µM.
Setting [33] is: second compound 3.16 µM, first compound 0.316 µM.
Setting [34] is: second compound 3.16 µM, first compound 1 µM.
[35] abbreviates: second compound 3.16 µM, first compound 3.16 µM.
Where [36] appears, read: second compound 3.16 µM, first compound 10 µM.
Setting [37] is: second compound 10 µM, first compound 0.0316 µM.
Setting [38] is: second compound 10 µM, first compound 0.1 µM.
Where [39] appears, read: second compound 10 µM, first compound 0.316 µM.
Where [40] appears, read: second compound 10 µM, first compound 1 µM.
Setting [41] is: second compound 10 µM, first compound 3.16 µM.
Setting [42] is: second compound 10 µM, first compound 10 µM.

pIC50: −log10 of the molar value. Values joined by “and” are separate entries in the source; they are usually repeats but may differ in a detail not shown here. Identical values can stand only once.
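Further: spheroids exposed to the agents for 7 days.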

Broadly, the pIC50 is the IC50 on a negative log10 scale, so that one unit is a factor of ten. By viability, T/C is commonly meant the ratio of treated to control. Regarding `COC1C=CCC(C)C(C)S(=O)(=O)NC(=O)c2ccc3c(c2)N(CC2CCC21)CC1(CCCc2cc(Cl)ccc21)CO3` (stereo unspecified) + CNC(=O)c1ccc(Nc2nc(OC3CCCC3)c3c(-c4ccc5nc(C)oc5c4)c[nH]c3n2)c(OC)c1, the pIC50 runs as follows: under setting [1], 5.37; under setting [2], more than 7.50; under setting [3], more than 7.50; under setting [4], more than 7.50; under setting [5], more than 7.50; under setting [6], more than 7.50. Also, the viability, T/C reads like this: under setting [7], 56.2%; under setting [8], 70.6%; under setting [9], 81.3%; under setting [10], 83%; under setting [11], 66.2%; under setting [12], 4.89%. The viability, T/C runs as follows: under setting [13], 13%; under setting [14], 13.1%; under setting [15], 12.5%; under setting [16], 15.2%; under setting [17], 9.14%; under setting [18], 2.12%. Besides, the viability, T/C under setting [19] is 12.3%; the viability, T/C under setting [20] is 11.6%; the viability, T/C under setting [21] is 11.9%; the viability, T/C under setting [22] was 8.54%; the viability, T/C under setting [23] is 6.49%; the viability, T/C under setting [24] was 5.35%. Moreover, the viability, T/C was 12.7% under setting [25]; 11.2% under setting [26]; 9.61% under setting [27]; 8.8% under setting [28]; 6.45% under setting [29]; 5.97% under setting [30]. The viability, T/C under setting [31] was 11.9%; the viability, T/C under setting [32] was 12.1%; the viability, T/C under setting [33] is 10.3%; the viability, T/C under setting [34] is 7.26%; the viability, T/C under setting [35] is 6.87%; the viability, T/C under setting [36] was 11.6%. Also, the viability, T/C runs as follows: under setting [37], 13.3%; under setting [38], 13.5%; under setting [39], 10.2%; under setting [40], 8.44%; under setting [41], 8.98%; under setting [42], 9.48%.

For the compound `C#Cc1c(F)ccc2cc(O)cc(-c3ncc4c(N5CC6CCC(C5)N6)nc(OCC56CCCN5CC(F)C6)nc4c3F)c12` (stereo unspecified), the viability, T/C is 99.7% and 97.3% (compound 0.0316 µM); 85.4% and 93.6% (compound 0.1 µM); 108% and 98.6% (compound 0.316 µM); 96.1% and 92.8% (compound 1 µM); 118% and 111% (compound 3.16 µM); 89.6% and 94.6% (compound 10 µM). Further, the pIC50 (curve of compound) was less than 5.00.

On to `COC1C=CCC(C)C(C)S(=O)(=O)NC(=O)c2ccc3c(c2)N(CC2CCC21)CC1(CCCc2cc(Cl)ccc21)CO3` (stereo unspecified) + CN1CCN(c2cc(C(=O)Nc3cc4cc(-c5cnn(C)c5)ccc4cn3)ccn2)CC1, for which the pIC50 reads like this: under setting [1], 5.03; under setting [2], 5.10; under setting [3], more than 7.50; under setting [4], more than 7.50; under setting [5], more than 7.50; under setting [6], more than 7.50. The viability, T/C reads like this: under setting [7], 96.7%; under setting [8], 99.5%; under setting [9], 108%; under setting [10], 105%; under setting [11], 81.2%; under setting [12], 48%. Further, the viability, T/C by setting is: under setting [13], 77.3%; under setting [14], 87%; under setting [15], 82.2%; under setting [16], 80.7%; under setting [17], 73.5%; under setting [18], 44%. Further, the viability, T/C under setting [19] is 36%; the viability, T/C under setting [20] is 35.3%; the viability, T/C under setting [21] was 37%; the viability, T/C under setting [22] was 32.4%; the viability, T/C under setting [23] is 29.3%; the viability, T/C under setting [24] was 13.3%. Further, the viability, T/C by setting is: under setting [25], 0.21%; under setting [26], 2.53%; under setting [27], 2.21%; under setting [28], 1.57%; under setting [29], 0.27%; under setting [30], 1.2%. Further, the viability, T/C was 2.24% under setting [31]; 3.21% under setting [32]; 2.04% under setting [33]; 1.78% under setting [34]; 1.66% under setting [35]; 1.86% under setting [36]. The viability, T/C by setting is: under setting [37], 4.14%; under setting [38], 0.77%; under setting [39], 1.41%; under setting [40], 2.69%; under setting [41], 1.19%; under setting [42], 0.32%.

Regarding `O=C(c1cc(Cc2n[nH]c(=O)c3ccccc23)ccc1F)N1CCN(C(=O)C2CC2)CC1`, the viability, T/C reads like this: (compound 0.0316 µM) 99.6% and 98.6%; (compound 0.1 µM) 94.2% and 88%; (compound 0.316 µM) 91.3% and 90.8%; (compound 1 µM) 87.9% and 100%; (compound 3.16 µM) 93.2% and 101%; (compound 10 µM) 73.2% and 66.8%. Besides, the pIC50 (curve of compound) is less than 5.00.

As to `COc1cccc2c1C(=O)c1c(O)c3c(c(O)c1C2=O)CC(O)(C(=O)CO)CC3OC1CC(N)C(O)C(C)O1` (stereo unspecified), the viability, T/C by setting is: (compound 0.0316 µM) 14.6% and 11.2%; (compound 0.1 µM) 11.1% and 6.08%; (compound 0.316 µM) 1.12% and 2.35%; (compound 1 µM) 0.18% and 1.14%; (compound 3.16 µM) 2.47% and 0.1%; (compound 10 µM) 1.82% and 1.43%. The pIC50 (curve of compound) is more than 7.50.

Turning to `COc1ccc([C@@H](O)c2cc(-c3ncnc4cc(N5CCOCC5)ccc34)c(F)cc2Cl)nn1`, the viability, T/C by setting is: (compound 0.0316 µM) 92.4% and 111%; (compound 0.1 µM) 91.4% and 93%; (compound 0.316 µM) 88% and 80%; (compound 1 µM) 86.8% and 84.3%; (compound 3.16 µM) 76% and 71.4%; (compound 10 µM) 48.9% and 47.2%. The negative logarithm of the IC50 (pIC50) (curve of compound) was 5.01 and < 5.00.

In the case of `Nc1ccn(C2OC(CO)C(O)C2(F)F)c(=O)n1` (stereo unspecified), the viability, T/C was 4.83% and 1.9% (compound 0.0316 µM); 2.69% and 2.98% (compound 0.1 µM); 2.89% and 2.37% (compound 0.316 µM); 2.8% and 3.02% (compound 1 µM); 2.26% and 2.69% (compound 3.16 µM); 2.3% and 1.66% (compound 10 µM). Further, where the note is “curve of compound”, the pIC50 is more than 7.50.

As to `CC(Nc1ccc2c(c1)OCCn1cc(N3C(=O)OCC3C(F)F)nc1-2)C(N)=O` (stereo unspecified), the viability, T/C was 86% and 91.1% (compound 0.0316 µM); 76.5% and 86.9% (compound 0.1 µM); 77.7% and 75.1% (compound 0.316 µM); 73.9% and 78.2% (compound 1 µM); 53.4% and 56.5% (compound 3.16 µM); 40% and 44.6% (compound 10 µM). Also, the pIC50 (curve of compound) was 5.36 and 5.19.
